Experimental data reported in patent US20180370922A1, “ANTI-INFLAMMATORY 6-PHENOXYPYRIMIDINE DERIVATIVES, PROCESS FOR THEIR PREPARATION AND PHARMACEUTICAL COMPOSITION CONTAINING THEM” (priority 2017, published 2018).

Legend:
[1] = tested on: LPS-induced PEG2 production; test: Measurement of PEG2 production; type: cell-based; conditions: FIG. 3
[2] = tested on: TNF-α; test: Cytokine production inhibiting activity, TNF-α; type: cell-based; conditions: at a concentration of 12 μM, FIG. 6
Method: (§1) The inhibitory activity for the proinflammatory cytokines TNF-α, IL-1β and IL-6 was tested for the compound of the present invention.

[3] = tested on: RAW 264.7 macrophages
Method: RAW 264.7 macrophages were seeded onto a 24-well plate, cultured with a sample or an adequate positive control under various concentration conditions and then LPS (lipopolysaccharides) were activated for 24 hours. After adding a 20 μL MTT (5 mg/mL) solution to each well, the cells were cultured further for 4 hours. After removing the supernatant, 1 mL of formazan dissolved in dimethyl sulfoxide (DMSO) was added to each well. Then, absorbance was measured by ELISA at a wavelength of 540 nm.

[4] = tested on: IL-6; test: Cytokine production inhibiting activity, IL-6; type: cell-based; conditions: at a concentration of 12 μM, FIG. 6
Method: as §1

[5] = tested on: iNOS mRNA; test: iNOS mRNA expression level; type: cell-based; conditions: FIG. 5A
Method: Western blotting was conducted to identify the mechanism of the NO and PGE2 production inhibiting activity of the compound of the present invention. The inhibition of iNOS and COX-2 protein production and mRNA upregulation was tested.

[6] = tested on: LPS-induced NO production in RAW 264.7 macrophages; test: Measurement of nitrite (Griess test) as a measure of NO production; type: cell-based, murine; conditions: FIG. 2
Method: The concentration of nitrite accumulated in the culture medium was measured by the Griess test as a measure of nitric oxide (NO) production. L-NIL was used as the positive control.

COc1ccc(Oc2nc(Nc3ccc(N4CCOCC4)cc3)ncc2/N=C/c2cc(OC)cc(OC)c2)cc1 [Example 21, (E)-5-((3,5-dimethoxybenzylidene)amino)-4-(4-methoxyphenoxy)-N-(4-morpholinophenyl)pyrimidin-2-amine]
inhibition of LPS-induced PEG2 production [1]: inhibit LPS-induced PEG2 production in a dose-dependent manner | inhibition of TNF-α production [2]: inhibit the production of TNF-α | cell viability (toxicity) [3]: little toxicity | inhibition of IL-6 production [4]: inhibit the production of TNF-α and IL-6 | inhibition of LPS-induced upregulation of iNOS mRNA [5]: inhibit LPS-induced upregulation of iNOS mRNA | inhibition of LPS-induced NO production ([6]; RAW 264.7 macrophages, LPS 24 hours, Griess test): inhibit LPS-induced NO production in a dose-dependent manner | NO inhibitory activity as compared to the positive control L-NIL ([6]; relative to L-NIL): 2 times
